Source: article PMC11052718, “PMF-seq: a highly scalable screening strategy for linking genetics to mitochondrial bioenergetics” (Nature Metabolism, 2024)
Blank lines part the entries; values can stand above or below the compound they belong to.

Columns and labels:
human LDHD [1] = biological target: T1, human LDHD (Homo sapiens, UniProt Q86WU2); test: cytochrome c reduction, absorbance at […] nm; format: biochemical; conditions: 200 µM bovine heart cytochrome c as electron acceptor, 50 mM potassium phosphate pH 8.5; 10 mM substrate
T1 construct: ~50 kDa predicted, dimer by gel filtration
T1 sequence (Q86WU2 53-484 isoform Q86WU2-2): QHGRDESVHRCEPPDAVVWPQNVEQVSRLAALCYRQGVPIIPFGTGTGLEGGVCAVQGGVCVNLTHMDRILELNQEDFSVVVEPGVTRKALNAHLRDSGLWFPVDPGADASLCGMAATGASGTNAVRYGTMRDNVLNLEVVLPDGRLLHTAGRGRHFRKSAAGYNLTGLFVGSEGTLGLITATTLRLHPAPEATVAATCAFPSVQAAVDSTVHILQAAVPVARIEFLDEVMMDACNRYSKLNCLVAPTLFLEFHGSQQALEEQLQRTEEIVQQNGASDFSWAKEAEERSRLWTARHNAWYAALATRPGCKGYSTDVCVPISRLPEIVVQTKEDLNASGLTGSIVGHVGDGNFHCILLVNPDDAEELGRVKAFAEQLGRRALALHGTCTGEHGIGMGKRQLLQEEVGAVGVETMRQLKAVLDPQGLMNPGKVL

human LDHD [2] = biological target: T1, human LDHD; test: cytochrome c reduction, absorbance at […] nm; format: biochemical; conditions: 200 µM bovine heart cytochrome c as electron acceptor, 50 mM potassium phosphate pH 8.5
[3] = biological target: human D-lactate dehydrogenase (LDHD) isoform 2 (Komagataella phaffii | human); test: SEC; Superdex 200 10/300 GL, after elution from Talon cobalt resin; running buffer not stated

Compound: CC[C@@H](O)C(=O)O [D-2-hydroxybutyrate]
- relative initial rate at 10 mM (human LDHD [1]): we identified D-2-hydroxybutyrate as another LDHD substrate that can be used to reduce cytochrome c

- Km (human LDHD [2]): 112 µM
Compound: C[C@@H](O)C(=O)O [D-lactate]

- stoichiometry N [3]: 2
Compound: human D-lactate dehydrogenase (LDHD) isoform 2 (enzyme)
